Patent US20220362381A1, “REMOTELY TRIGGERED THERAPY” (Bambu Vault LLC, priority 2019, published 2022)
One block for each compound: values may come before it.

Experiments:
[1] = likelihood of association with drug induced liver injury; cited from earlier work
[2] = Stabilization effect of surfactant on tetrakis aminium dye during emulsification (Epolight 1117 retention); assay type: physicochemical; details: retention in particles after emulsification; surfactant in aqueous phase as in label
Description: IR absorbing agent weight ratio=4.4:1). The organic phase (polymer and IR absorbing agents dissolved in dichloromethane) was injected directly into the aqueous phase (PVA solution with SDS surfactant) at the tip of the Turrax's roto-stator (i.e. directly into the flow being sheared by the roto-stator). The shear mixing at 8000 RPM was continued for 30 minutes. The resulting mixture was decanted into an open-mouth container and stirred magnetically for 16 hours. A solid suspension of particles containing IR absorbing agent was obtained. The solid suspension was centrifuged at 5000 RPM for 30 minutes and the particles were collected. The collected particles were washed with distilled water by resuspending the particles into distilled water and centrifuging as before to collect the particles. This washing process was repeated three times to remove residual PVA. The resulting MMA/BMA copolymer particles containing IR absorbing agent were air-dried. In the emulsion method of encapsulation, a surfactant is necessary to help keep the emulsion stable. While Aerosol® TR-70 (sodium bis(tridecyl) sulfosuccinate) could be used as an emulsifier to prepare polymer particles encapsulating Epolight™ 1117 tetrakis aminium dye, TR-70 only provided limited stabilization effects on the tetrakis aminium dye. […]

[3] = Leaching testing of curcumin/Epolight IR 1117 B-805 particles with and without VTMS shell (FIG. 13); assay type: physicochemical; details: B-805 particles with VTMS shell vs. without shell

SMILES: C[C@H](Nc1ncnc2[nH]cnc12)c1cc2cccc(Cl)c2c(=O)n1-c1ccccc1 [Duvelisib]
Likelihood Score [1]: E*

SMILES: CNCc1ccc(-c2[nH]c3cc(F)cc4c3c2CCNC4=O)cc1 [Rucaparib]
Likelihood Score [1]: D*

SMILES: CO[C@@H]1[C@H](N(C)C(=O)c2ccccc2)C[C@H]2O[C@]1(C)n1c3ccccc3c3c4c(c5c6ccccc6n2c5c31)C(=O)NC4 [Midostaurin]
Likelihood Score [1]: E*

SMILES: COC(=O)N[C@@H](C)CNc1nccc(-c2cn(C(C)C)nc2-c2cc(Cl)cc(NS(C)(=O)=O)c2F)n1 [Encorafenib]
Likelihood Score [1]: E*

SMILES: Cc1ccc(C(=O)Nc2ccc(CN3CCN(C)CC3)c(C(F)(F)F)c2)cc1C#Cc1cnc2cccnn12 [Ponatinib]
Likelihood Score [1]: E*

SMILES: COc1cc(Nc2c(C#N)cnc3cc(OCCCN4CCN(C)CC4)c(OC)cc23)c(Cl)cc1Cl [Bosutinib]
Likelihood Score [1]: E*

SMILES: CCOc1cc2ncc(C#N)c(Nc3ccc(OCc4ccccn4)c(Cl)c3)c2cc1NC(=O)/C=C/CN(C)C [Neratinib]
Likelihood Score [1]: E*

SMILES: CCS(=O)(=O)N1CC(CC#N)(n2cc(-c3ncnc4[nH]ccc34)cn2)C1 [Baricitinib]
Likelihood Score [1]: E*

SMILES: CC(=O)c1c(C)c2cnc(Nc3ccc(N4CCNCC4)cn3)nc2n(C2CCCC2)c1=O [Palbociclib]
Likelihood Score [1]: E*

SMILES: CCN1CCN(Cc2ccc(Nc3ncc(F)c(-c4cc(F)c5nc(C)n(C(C)C)c5c4)n3)nc2)CC1 [Abemaciclib]
Likelihood Score [1]: E*

SMILES: COc1cc(N2CCC(N3CCN(C)CC3)CC2)ccc1Nc1ncc(Cl)c(Nc2ccccc2P(C)(C)=O)n1 [Brigatinib]
Likelihood Score [1]: E*

SMILES: CC(C)(O)CNc1nc(Nc2ccnc(C(F)(F)F)c2)nc(-c2cccc(C(F)(F)F)n2)n1 [Enasidenib]
Likelihood Score [1]: E*

SMILES: COc1c(OCCCN2CCOCC2)ccc2c1N=C(NC(=O)c1cnc(N)nc1)N1CCN=C21 [Copanlisib]
Likelihood Score [1]: E*

SMILES: CCCS(=O)(=O)Nc1ccc(F)c(C(=O)c2c[nH]c3ncc(-c4ccc(Cl)cc4)cc23)c1F [Vemurafenib]
Likelihood Score [1]: E*

SMILES: O=C(Nc1cnn2ccc(N3CCC[C@@H]3c3cc(F)ccc3F)nc12)N1CC[C@H](O)C1 [Larotrectinib]
Likelihood Score [1]: E*

SMILES: CCc1nc(C(N)=O)c(Nc2ccc(N3CCC(N4CCN(C)CC4)CC3)c(OC)c2)nc1NC1CCOCC1 [Gilteritinib]
Likelihood Score [1]: E*

SMILES: N#Cc1ccnc(N2C(=O)CC[C@H]2C(=O)N(c2cncc(F)c2)[C@H](C(=O)NC2CC(F)(F)C2)c2ccccc2Cl)c1 [Ivosidenib]
Likelihood Score [1]: E*

SMILES: Cc1c(C(=O)Nc2ccc(N3C[C@@H](C)O[C@@H](C)C3)nc2)cccc1-c1ccc(OC(F)(F)F)cc1 [Sonidegib]
Likelihood Score [1]: E*

SMILES: CN1CC[C@@H](NC(=O)Nc2ccc(C#N)cc2)C[C@@H]1c1nc2ccccc2[nH]1 [Glasdegib]
Likelihood Score [1]: E*

SMILES: COc1cc2ncnc(Nc3ccc(F)c(Cl)c3)c2cc1NC(=O)/C=C/CN1CCCCC1 [Dacomitinib]
Likelihood Score [1]: E*

SMILES: Cn1ncnc1[C@H]1c2n[nH]c(=O)c3cc(F)cc(c23)N[C@@H]1c1ccc(F)cc1 [Talazoparib]
Likelihood Score [1]: E*

SMILES: N#CC[C@H](C1CCCC1)n1cc(-c2ncnc3[nH]ccc23)cn1 [Ruxolitinib]
Likelihood Score [1]: E*

% Epolight ™ 1117 Retention [2]: 50%
SMILES: CCCCCCCCCCCCCOC(=O)CC(C(=O)OCCCCCCCCCCCCC)S(=O)(=O)O.[Na] (stereo not shown) [TR-70, sodium bis(tridecyl) sulfosuccinate]

SMILES: COc1cc2nccc(Oc3ccc(NC(=O)C4(C(=O)Nc5ccc(F)cc5)CC4)cc3)c2cc1OC [Cabozantinib]
Likelihood Score [1]: E*

SMILES: CC(C)C[C@H](NC(=O)CNC(=O)c1cc(Cl)ccc1Cl)B(O)O [Ixazomib]
Likelihood Score [1]: E*

SMILES: C[C@H]1Oc2cc(cnc2N)-c2c(nn(C)c2C#N)CN(C)C(=O)c2ccc(F)cc21 [Lorlatinib]
Likelihood Score [1]: E*

% Epolight ™ 1117 Retention [2]: 85-90%
SMILES: CCCCCCCCCCCCOS(=O)(=O)[O-].[Na+] [Sodium dodecyl sulfate, sodium dodecyl sulfate]

SMILES: NC(=O)c1cccc2cn(-c3ccc([C@@H]4CCCNC4)cc3)nc12 [Niraparib]
Likelihood Score [1]: E*

SMILES: COc1cc(Nc2ncc(F)c(Nc3ccc4c(n3)N(COP(=O)(O)O)C(=O)C(C)(C)O4)n2)cc(OC)c1OC [Fostamatinib]
Likelihood Score [1]: E*

SMILES: Cn1cnc2c(F)c(Nc3ccc(Br)cc3F)c(C(=O)NOCCO)cc21 [Binimetinib]
Likelihood Score [1]: E*

SMILES: COC(=O)c1ccc2c(c1)NC(=O)/C2=C(\Nc1ccc(N(C)C(=O)CN2CCN(C)CC2)cc1)c1ccccc1 [Nintedanib]
Likelihood Score [1]: E*

SMILES: CC(C)(C)c1nc(-c2cccc(NS(=O)(=O)c3c(F)cccc3F)c2F)c(-c2ccnc(N)n2)s1 [Dabrafenib]
Likelihood Score [1]: E*

SMILES: COc1cc2c(Nc3ccc(Br)cc3F)ncnc2cc1OCC1CCN(C)CC1 [Vandetanib]
Likelihood Score [1]: E*

reduction of leaching by the VTMS shell [3]: 70%
SMILES: COc1cc(/C=C/C(=O)CC(=O)/C=C/c2ccc(O)c(OC)c2)ccc1O [Curcumin, curcumin]
